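Values below derive from 48-hour exposures of cells grown in 96-well plates, with endpoints linearly interpolated between the two concentrations bracketing the appropriate inhibition level. The concentration for 50% growth inhibition is given as GI50.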 Calls of active or inactive are those of the source. Cut-off read from the data, not from the text of the source: active = GI50 up to about 1.1 µM and inactive = higher.
How the values were obtained:
Test in all cases: inhibition of tumour cell growth, NCI panel, 48 h
786-0 = system: 786-0
IGROV-1 = system: IGROV-1
MDA-MB-231 = system: MDA-MB-231
KM12 = system: KM12
A498 = system: A498
HOP-92 = system: HOP-92
HL-60 = system: HL-60
SF-268 = system: SF-268
COLO 205 = system: COLO 205
OVCAR-5 = system: OVCAR-5
NCI-H460 = system: NCI-H460
BT-549 = system: BT-549
SK-OV-3 = system: SK-OV-3
HCT-116 = system: HCT-116
CCRF-CEM = system: CCRF-CEM
MDA-MB-435 = system: MDA-MB-435
A549 = system: A549
RXF 393 = system: RXF 393
SF-539 = system: SF-539
SK-MEL-28 = system: SK-MEL-28

| SMILES | GI50 (786-0) | GI50 (IGROV-1) | GI50 (MDA-MB-231) | GI50 (KM12) | GI50 (A498) | GI50 (HOP-92) | GI50 (HL-60) | GI50 (SF-268) | GI50 (COLO 205) | GI50 (OVCAR-5) | GI50 (NCI-H460) | GI50 (BT-549) | GI50 (SK-OV-3) | GI50 (HCT-116) | GI50 (CCRF-CEM) | GI50 (MDA-MB-435) | GI50 (A549) | GI50 (RXF 393) | GI50 (SF-539) | GI50 (SK-MEL-28) |
| --- | --- | --- | --- | --- | --- | --- | --- | --- | --- | --- | --- | --- | --- | --- | --- | --- | --- | --- | --- | --- |
| C=C1CCc2ccccc2C1=O | > 100 µM (inactive) | > 100 µM (inactive) | > 100 µM (inactive) | > 100 µM (inactive) | > 100 µM (inactive) | > 100 µM (inactive) | > 100 µM (inactive) | > 100 µM (inactive) | > 100 µM (inactive) | > 100 µM (inactive) | > 100 µM (inactive) | > 100 µM (inactive) | > 100 µM (inactive) | > 100 µM (inactive) | 45.8 µM (inactive) | 29.3 µM (inactive) | > 100 µM (inactive) | > 100 µM (inactive) | > 100 µM (inactive) |  |
| CN(C)CCNC(=O)c1ccc(NC(=O)c2nc([N+](=O)[O-])cn2C)cc1 | > 100 µM (inactive) | > 100 µM (inactive) | > 100 µM (inactive) | > 100 µM (inactive) | > 100 µM (inactive) | > 100 µM (inactive) | > 100 µM (inactive) | > 100 µM (inactive) | > 100 µM (inactive) | > 100 µM (inactive) | > 100 µM (inactive) | > 100 µM (inactive) | > 100 µM (inactive) | > 100 µM (inactive) | > 100 µM (inactive) | > 100 µM (inactive) | > 100 µM (inactive) | > 100 µM (inactive) | > 100 µM (inactive) | > 100 µM (inactive) |
| COc1c(O)cc2c(c1O)C(=O)C1=C(CCCC1)C2=O | 17.3 µM (inactive) | 12.6 µM (inactive) | 19 µM (inactive) | 20.2 µM (inactive) | 17.9 µM (inactive) | 21.7 µM (inactive) | 8.24 µM (inactive) | 24.4 µM (inactive) | 19.1 µM (inactive) | 38.4 µM (inactive) | 27.1 µM (inactive) | 23 µM (inactive) | 19.8 µM (inactive) | 12.5 µM (inactive) | 1.87 µM (inactive) | 26.9 µM (inactive) | 26.1 µM (inactive) | 14.9 µM (inactive) | 15.6 µM (inactive) | 24 µM (inactive) |
| CCOC(=O)NC | > 100 µM (inactive) | > 100 µM (inactive) | > 100 µM (inactive) | > 100 µM (inactive) | > 100 µM (inactive) | > 100 µM (inactive) | > 100 µM (inactive) | > 100 µM (inactive) | > 100 µM (inactive) | > 100 µM (inactive) | > 100 µM (inactive) | > 100 µM (inactive) | > 100 µM (inactive) | > 100 µM (inactive) | > 100 µM (inactive) | > 100 µM (inactive) | > 100 µM (inactive) | > 100 µM (inactive) | > 100 µM (inactive) | > 100 µM (inactive) |
| CC1=CC(=O)c2c(O)cccc2C1=O [PLUMBAGIN] | 1.65 µM (inactive) | 1.78 µM (inactive) | 1.92 µM (inactive) | 6.17 µM (inactive) | 5.86 µM (inactive) | 0.465 µM (active) | 0.152 µM (active) | 2.17 µM (inactive) | 1.86 µM (inactive) | 1.94 µM (inactive) | 3.64 µM (inactive) | 1.7 µM (inactive) | 14.1 µM (inactive) | 1.66 µM (inactive) | 0.208 µM (active) | 1.73 µM (inactive) | 11.5 µM (inactive) | 1.64 µM (inactive) | 1.91 µM (inactive) | 1.82 µM (inactive) |
| CC(C)C[C@H](NC(=O)[C@H](Cc1ccccc1)NC(=O)CCc1ccccc1)B(O)O | < 0.01 µM (active) | < 0.01 µM (active) | < 0.01 µM (active) | < 0.01 µM (active) | < 0.01 µM (active) | < 0.01 µM (active) | < 0.01 µM (active) | < 0.01 µM (active) | < 0.01 µM (active) | < 0.01 µM (active) | < 0.01 µM (active) | < 0.01 µM (active) | < 0.01 µM (active) | < 0.01 µM (active) | < 0.01 µM (active) | < 0.01 µM (active) | < 0.01 µM (active) | < 0.01 µM (active) | < 0.01 µM (active) | < 0.01 µM (active) |
| NNC(=O)CSc1nc2ccc(I)cc2c(=O)n1Cc1ccccc1 | 15.6 µM (inactive) | 24.4 µM (inactive) | 14.3 µM (inactive) | 23.5 µM (inactive) | 14.2 µM (inactive) | 30.5 µM (inactive) | 20.6 µM (inactive) | 17.5 µM (inactive) | 21.5 µM (inactive) | 20.4 µM (inactive) | 18.8 µM (inactive) | 23.2 µM (inactive) | 15.7 µM (inactive) | 18.4 µM (inactive) | 3.89 µM (inactive) | 35.2 µM (inactive) | 24.3 µM (inactive) | 13.1 µM (inactive) | 19.7 µM (inactive) | 28.4 µM (inactive) |
| NC(=O)c1sc2nc3ccccc3n2c1N | 40 µM (inactive) | 51.5 µM (inactive) | 24.9 µM (inactive) |  | 63.1 µM (inactive) | 69.8 µM (inactive) | > 100 µM (inactive) | 47.2 µM (inactive) | > 100 µM (inactive) | > 100 µM (inactive) |  | 14.4 µM (inactive) | 27.2 µM (inactive) | 74.1 µM (inactive) | > 100 µM (inactive) | > 100 µM (inactive) | > 100 µM (inactive) | 21.1 µM (inactive) | 21.5 µM (inactive) | > 100 µM (inactive) |
| C=C1C(=O)OC2/C=C(\C)C(O)CC(O)C(C)(O)CC(OC(=O)/C(C)=C/C)C12 (centres undefined) | 41.5 µM (inactive) | 31.7 µM (inactive) | 49.5 µM (inactive) | 29.6 µM (inactive) | 42.2 µM (inactive) | 41.9 µM (inactive) | 39.9 µM (inactive) | 42.3 µM (inactive) | 57.8 µM (inactive) | > 73.8 µM (inactive) | 32.1 µM (inactive) | 26.1 µM (inactive) | 53.5 µM (inactive) | 32.9 µM (inactive) | 34.3 µM (inactive) | 36.5 µM (inactive) | 53.6 µM (inactive) | > 60.1 µM (inactive) | 42.4 µM (inactive) | 47.9 µM (inactive) |
| COc1ccc(OC)c(C2CCc3c(cnc4nc(N)nc(N)c34)C2)c1 (centres undefined) | 4.48 µM (inactive) | 2.29 µM (inactive) | 12.2 µM (inactive) | 11.4 µM (inactive) | 12.3 µM (inactive) | 13.2 µM (inactive) | 10.4 µM (inactive) | 4.21 µM (inactive) | 16.1 µM (inactive) | 4.7 µM (inactive) | 2.07 µM (inactive) | 14.3 µM (inactive) | 16 µM (inactive) | 1.83 µM (inactive) |  | 2.56 µM (inactive) | 1.24 µM (inactive) | 15.8 µM (inactive) | 22.8 µM (inactive) | 13.7 µM (inactive) |
| CN(C)/C=N\c1cccc2cnccc12 | > 100 µM (inactive) | > 100 µM (inactive) | > 100 µM (inactive) |  | > 100 µM (inactive) | > 100 µM (inactive) | > 100 µM (inactive) | > 100 µM (inactive) | > 100 µM (inactive) | > 100 µM (inactive) |  | > 100 µM (inactive) | > 100 µM (inactive) | > 100 µM (inactive) | > 100 µM (inactive) | > 100 µM (inactive) | > 100 µM (inactive) | > 100 µM (inactive) | > 100 µM (inactive) | > 100 µM (inactive) |
| COc1ccc(-c2oc3ccc(C)cc3c(=O)c2O)cc1 | 44.3 µM (inactive) | > 100 µM (inactive) | 71.4 µM (inactive) | > 100 µM (inactive) | > 100 µM (inactive) | > 100 µM (inactive) | 58.7 µM (inactive) | 45 µM (inactive) | > 100 µM (inactive) | > 100 µM (inactive) |  | > 100 µM (inactive) | > 100 µM (inactive) | 52 µM (inactive) | > 100 µM (inactive) | > 100 µM (inactive) | > 100 µM (inactive) | > 100 µM (inactive) | 43.4 µM (inactive) | > 100 µM (inactive) |
| Clc1cc2ccccc2c2ccccc12 | > 100 µM (inactive) | 64 µM (inactive) | > 100 µM (inactive) | 47.9 µM (inactive) | > 100 µM (inactive) | 38.5 µM (inactive) | 35.2 µM (inactive) | 74 µM (inactive) | 26.9 µM (inactive) | > 100 µM (inactive) | 44.8 µM (inactive) | 49.2 µM (inactive) |  | > 100 µM (inactive) | < 0.01 µM (active) | 28.2 µM (inactive) | 44 µM (inactive) | 32.8 µM (inactive) | 64 µM (inactive) | 46.2 µM (inactive) |
| Cc1cc2c(cc1Cl)S(=O)(=O)OC(c1ccc([N+](=O)[O-])cc1)=N2 | > 100 µM (inactive) | > 100 µM (inactive) | > 100 µM (inactive) | > 100 µM (inactive) | > 100 µM (inactive) | > 100 µM (inactive) | > 100 µM (inactive) | > 100 µM (inactive) | > 100 µM (inactive) |  | > 100 µM (inactive) | > 100 µM (inactive) | > 100 µM (inactive) | > 100 µM (inactive) | > 100 µM (inactive) | > 100 µM (inactive) | > 100 µM (inactive) | > 100 µM (inactive) | > 100 µM (inactive) | > 100 µM (inactive) |
| COc1ccc(NC(S)=Nc2cccc(C)n2)cc1 | 54 µM (inactive) | 70.6 µM (inactive) | > 100 µM (inactive) | > 100 µM (inactive) | > 100 µM (inactive) | 39.5 µM (inactive) | > 100 µM (inactive) | 55.1 µM (inactive) | > 100 µM (inactive) |  | > 100 µM (inactive) | > 100 µM (inactive) | > 100 µM (inactive) | > 100 µM (inactive) | > 100 µM (inactive) | > 100 µM (inactive) |  | 28.4 µM (inactive) | 74.6 µM (inactive) | > 100 µM (inactive) |
